# According to patent US20230279379A1, “METHODS AND MICROFLUIDIC DEVICE FOR PRODUCING EXTRACELLULAR VESICLES” (THE BOARD OF TRUSTEES OF THE UNIVERSITY OF ILLINOIS, priority 2022, published 2023):
# System: F-actin in MSCs
# Test: dSTORM super-resolution imaging and DBSCAN clustering of F-actin
# Format: cell-based
# Conditions: CK869 treatment for 2 hours
# Procedure: Sample Preparation for Imaging of F-Actin in Cells on Hydrogels. To prepare samples for F-actin imaging, glass bottom dishes (No 0., 35 mm; MatTek) were silanized, and a thin layer of PEG-DA hydrogel with varied elasticity was formed as described above. After cell seeding on hydrogels and culturing cells in the presence of DMSO or CK869, cells were permeabilized with 0.0015% saponin (Sigma) in a cytoskeleton buffer (10 mM MES, pH 6.0, 150 mM NaCl, 5 mM EGTA, 5 mM glucose, and 5 mM MgCl2) for 4 minutes at room temperature. The samples were then washed with the cytoskeleton buffer 3 times and fixed with 4% paraformaldehyde in the cytoskeleton buffer for 20 minutes at room temperature. […]
# Super-Resolution Imaging of F-actin. […] 50,000 images were recorded for each cell in each condition; after rejecting overtly dense/bleached images approx. 30,000 images were analyzed in each cell/condition for localization detection in post-processing using ThunderSTORM (ImageJ), with the following settings in brief: wavelet filtering (B-spline order 3, scale 2); integrated Gaussian fitting (radius: 3 pixels, initial sigma: 1.6 pixels); local maximum with 8-neighborhood; camera pixel size 160 nm. […]
# Nanoscale Clustering Analysis of F-actin. […] The percentage of F-actin localizations that belong to each cluster group per cell was then quantified and used for statistical analysis.
smiles,measurement,value
COc1ccc(N2C(=O)CSC2c2cccc(Br)c2)c(OC)c1 (stereo not shown) [CK869],distribution of F-actin clusters,did not alter the distribution of different F-actin clusters on both substrates
